# Measured values reported in ChEMBL document CHEMBL1149214, “1,2-Diaryl-1-ethanone and pyrazolo [4,3-c] quinoline-4-one as novel selective cyclooxygenase-2 inhibitors” (Bioorg Med Chem Lett, 2004).
# Legend:
# [1] = molecular target: T1, Prostaglandin G/H synthase 1 (Ovis aries) (UniProt P05979); experiment: Inhibition of prostaglandin G/H synthase 1 enzyme from ram seminal vesicles by spectrophotometric method at 10 uM
# T1 sequence (whole entry): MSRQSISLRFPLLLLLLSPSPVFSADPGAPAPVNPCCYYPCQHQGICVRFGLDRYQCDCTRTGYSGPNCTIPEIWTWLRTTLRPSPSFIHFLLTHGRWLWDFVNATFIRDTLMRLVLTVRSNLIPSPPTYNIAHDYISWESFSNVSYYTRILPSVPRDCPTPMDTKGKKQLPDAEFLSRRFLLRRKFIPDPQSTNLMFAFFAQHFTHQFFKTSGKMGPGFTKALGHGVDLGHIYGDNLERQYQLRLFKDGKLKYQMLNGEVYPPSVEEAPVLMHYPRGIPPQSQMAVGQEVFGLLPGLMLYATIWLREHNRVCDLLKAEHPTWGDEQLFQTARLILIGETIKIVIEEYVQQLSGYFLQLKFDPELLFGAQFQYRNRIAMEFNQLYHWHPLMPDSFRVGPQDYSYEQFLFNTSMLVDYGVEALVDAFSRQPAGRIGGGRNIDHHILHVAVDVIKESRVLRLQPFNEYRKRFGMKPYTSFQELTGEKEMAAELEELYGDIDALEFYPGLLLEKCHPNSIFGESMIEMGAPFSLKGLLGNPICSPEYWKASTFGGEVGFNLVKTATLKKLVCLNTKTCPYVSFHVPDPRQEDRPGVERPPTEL
# [2] = system: Rattus norvegicus; experiment: Activity in Carrageenan induced rat paw model at 30 mg/Kg; Range = 25-45%; format: functional
# [3] = molecular target: T2, Prostaglandin G/H synthase 2 (Homo sapiens, UniProt P35354); experiment: Inhibition of human Prostaglandin G/H synthase 2 in sf-9 cells by spectrophotometric method; format: cell-based, Sf9
# T2 sequence (P35354 whole entry): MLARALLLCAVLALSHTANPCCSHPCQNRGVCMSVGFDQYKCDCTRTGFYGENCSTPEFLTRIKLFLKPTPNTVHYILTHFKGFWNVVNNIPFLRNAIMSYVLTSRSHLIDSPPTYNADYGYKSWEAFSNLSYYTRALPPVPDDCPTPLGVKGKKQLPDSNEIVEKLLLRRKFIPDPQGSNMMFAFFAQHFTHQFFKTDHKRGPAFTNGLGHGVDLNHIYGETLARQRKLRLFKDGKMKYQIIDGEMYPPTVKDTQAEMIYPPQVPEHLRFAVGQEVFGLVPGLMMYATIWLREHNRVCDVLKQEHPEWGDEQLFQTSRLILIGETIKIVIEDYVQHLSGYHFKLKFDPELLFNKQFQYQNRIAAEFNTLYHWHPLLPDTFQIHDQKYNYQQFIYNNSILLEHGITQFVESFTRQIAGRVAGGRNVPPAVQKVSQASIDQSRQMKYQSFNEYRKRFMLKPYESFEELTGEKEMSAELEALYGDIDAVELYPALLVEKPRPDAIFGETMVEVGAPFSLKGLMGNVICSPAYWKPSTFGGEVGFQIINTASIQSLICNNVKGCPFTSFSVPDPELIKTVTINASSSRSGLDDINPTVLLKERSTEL
# [4] = molecular target: T3, Prostaglandin G/H synthase 1 (Ovis aries, UniProt P05979); experiment: Inhibition of prostaglandin G/H synthase 1 enzyme from ram seminal vesicles by spectrophotometric method
# T3 sequence (P05979 whole entry): T1 sequence (whole entry)
# [5] = molecular target: T2, Prostaglandin G/H synthase 2; experiment: Inhibition of human Prostaglandin G/H synthase 2 in sf-9 cells by spectrophotometric method
SMILES,inhibition [1] [%],further results
CS(=O)(=O)c1ccc(C(Nc2nccs2)C(=O)c2ccc(F)cc2)cc1 (centres undefined),-0,–
Cc1nn(-c2ccc(S(N)(=O)=O)cc2)c2c1c(O)nc1ccccc12,20,–
NS(=O)(=O)c1ccc(C(Nc2nccs2)C(=O)c2ccc(F)cc2)cc1 (centres undefined),-0,–
CSc1ccc(C(=O)C(Nc2ncccc2Cl)c2ccccc2)cc1 (centres undefined),53,–
C[S+]([O-])c1ccc(C(Nc2nccs2)C(=O)c2ccc(F)cc2)cc1 (centres undefined),-0,Activity [2]: <45%; IC50 [3]: 2100 nM; IC50 [4]: 500 µM
CS(=O)(=O)c1ccc(C(=O)C(Nc2nccs2)c2ccccc2)cc1 (centres undefined),10,–
Cc1nn(-c2ccccc2)c2c1c(O)nc1ccc([N+](=O)[O-])cc12,46,Activity [2]: <45%; IC50 [5]: 550 nM; IC50 [4]: 5 µM
Cc1nn(-c2ccc(S(N)(=O)=O)cc2)c2c1c(O)nc1ccc([N+](=O)[O-])cc12,40,Activity [2]: <45%
C[S+]([O-])c1ccc(C(Nc2cccnc2)C(=O)c2ccc(F)cc2)cc1 (centres undefined),-0,Activity [2]: <45%; IC50 [3]: 500 nM; IC50 [4]: 50 µM
NS(=O)(=O)c1ccc(C(Nc2ncccn2)C(=O)c2ccc(F)cc2)cc1 (centres undefined),-0,–
NS(=O)(=O)c1ccc(C(Nc2nc3ccccc3s2)C(=O)c2ccc(F)cc2)cc1 (centres undefined),23,–
Cc1nn(-c2ccc(S(N)(=O)=O)cc2)c2c1c(=O)[nH]c1ccc([N+](=O)[O-])cc12,–,IC50 [5]: 240 nM; IC50 [4]: 4.7 µM
Cc1nn(-c2ccccc2)c2c1c(O)nc1ccccc12,82,–

# Second part, led by results:
inhibition [1] [%],SMILES,further results
-0,Cc1nn(-c2ccc(S(N)(=O)=O)c(CO)c2)c2c1c(O)nc1ccc([N+](=O)[O-])cc12,–
29,C[S+]([O-])c1ccc(C(=O)C(Nc2nccs2)c2ccccc2)cc1 (centres undefined),–
30,NS(=O)(=O)c1ccc(C(Nc2ccccn2)C(=O)c2ccc(F)cc2)cc1 (centres undefined),–
78,Cc1nn(-c2ccc(S(=O)(=O)NCc3ccccc3)cc2)c2c1c(O)nc1ccc([N+](=O)[O-])cc12,–
-0,Cc1nn(-c2ccc(S(N)(=O)=O)c(CO)c2)c2c1c(O)nc1ccccc12,–
